According to patent publication US20120321694A1, “COMPOSITIONS AND USES” (priority 2010, published 2012):
Where no end group is shown, it is not given here.

Legend:
APPSwe/PS1 mice = assay: T-water maze; assay type: in vivo; details: for T-water maze, spatial memory: Example 21, twelve weekly injections, 3D MPL 50 μg, CRX527 20 μg, CRX601 20 μg i.p., AS01B 1/10th human dose i.m., vs non treated, FIG. 24
Protocol: Five groups of APPSwe/PS1 mice received one a week for a period of 12 weeks the following treatment: • Gr1: APPSwe/PS1+NaCl 0.9% n(=20), i.p. injections • Gr4: APPSwe/PS1+CRX527 (20 μg/mouse, 130 μl, n=10), i.p. injections • Gr5: APPSwe/PS1+CRX601 (20 μg/mouse, 130 μl, n=10), i.p. injections • Gr6: APPSwe/PS1+3D MPL (50 μg/mouse, 130 μl, n=10), i.p. injections • Gr8 APPSwe/PS1+AS15 ( 1/10th of human dose, 50 μl, n=10), i.m. injections • Gr9: APPSwe/PS1+AS01B ( 1/10th of human dose, 50 μl, n=10), i.m. injections
Mice were tested during the “light on” phase of the day. Behavioral experimenter was blinded to the genetic and treatment status of animals. To assess hippocampal-dependent spatial learning and memory, mice were trained in the T-water maze task. In this paradigm, we evaluate the mouse's ability to remember the spatial location of submerged platform. The T-maze apparatus (length of stem, 64 cm; length of arms, 30 cm; width, 12 cm; height of walls, 16 cm) was made of clear fiberglass and filled with water (23±1° C.) at a height of 12 cm. A platform (11×11 cm) was placed at the end of the target arm and was submerged 1 cm below the surface. The acquisition phase allows to evaluate animals for left-right spatial learning. During the first two trials, platforms were placed on each arms of the maze to test the spontaneous turning preference of the mouse. After these two trials, the least chosen arm was reinforced by the escape platform. The mice were placed in the stem of the T-maze and choose to swim either left or right until they found the submerged platform and escape to it, to a maximum of 60 s. After reaching the platform, the mice remained on it for 20 s and then were immediately placed back in the maze. […] Repeated trials were presented on the same day up to a maximum of 48 trials. A rest period of at least 10-15 min intervened between each block of 10 trials. A mouse was considered to have learned the task when it made no errors in a block of five consecutive trials. The reversal learning phase was then conducted 48 h later. During this phase, the same protocol was repeated, except that the mice were trained to find the escape platform on the opposite side to that on which they had learned on acquisition phase. The number of trials to reach the criterion (five of five correct choices made on consecutive trials) was measured as well as the latency to find the escape platform.

[1] = tested on: Lineage- CD11b+ monocytes in peripheral blood; assay: Monocyte analysis and counting after adjuvant injection in mice; assay type: in vivo, C57BL/6 mice
Protocol: (§1) 24-Hours after injection of the TLR adjuvants, peripheral blood was drawn from C57BL/6 mice via cardiac puncture with lithium-heparin as anticoagulant. Red blood cell lysis was performed twice on pooled blood with Ammonium Chloride-based Buffer (Sigma, Steinheim, Germany) and cells were counted with the EasyCount™ System (Immunicon). […] Cells were finally washed three times and fixed for 15 min. with a 2% paraformaldehyde solution in PBS. Fluorescence minus one (FMO) controls were always included in the assays for fluorescent compensation setting. Samples were acquired on a flow cytometer (BD FACSCanto II) and data analyzed with the FACSDiva software (BD Biosciences). Monocytes were identified by their Side/Forward scatter properties and gated as CD3-/CD45R/B220-/Ly-6G-/NK1.1-(Lineage-)/CD11b+ cells. CD11b+ monocyte frequency was reported as a percentage of the total cells excluding debris.
as §1, with “24 hours” for “24-Hours”, “each immunomodulator,” for “the TLR adjuvants,”, “min” for “min.”, “monocytes” for “monocyte”
(§2) Cells were finally washed twice and fixed for 15 min. with a 2% paraformaldehyde solution in PBS. FMOs controls were always included in the assays. Samples were acquired on a flow cytometer (BD FACSCanto II) and data analyzed with the FACSDiva software (BD Biosciences). Monocytes were identified and counted by their Side/Forward scatter properties, excluding debris and gated as CD3-/CD45R/B220-/Ly-6G-/NK1.1-(Lineage-)/CD11b+ cells.

[2] = tested on: CD11b+ peripheral blood monocytes; assay: In vivo uptake assay of Aβ42 after immunization or passive immunotherapy; set-up: species or system C57BL/6 mice; details: FIG. 22
Protocol: (§3) Cells were finally washed twice and fixed for 15 min. with a 2% paraformaldehyde solution in PBS. FMOs controls were always included in the assays.
as §2

[3] = tested on: CD11b+ peripheral blood monocytes; assay: Ex vivo uptake assay of Aβ1-42 by peripheral blood monocytes; assay type: cell-based, C57BL/6 mice
Protocol: (§4) Red blood cell lysis was performed twice on pooled blood with Ammonium Chloride-based Buffer (Sigma, Steinheim, Germany) and cells were counted with the EasyCount™ System (Immunicon).
as §3, §4

[4] = tested on: human microglial cell line CHME; assay: Phagocytosis of Aβ1-42 by CHME microglial cell line; assay type: cell-based; details: FIG. 18
Protocol: Phagocytosis of beta-amyloid 1-42 peptide by the human microglial cell line CHME was observed after the addition of TLR2 agonist containing adjuvants Protollin and Pam3CysLip peptide. […] The synthetic peptide sequence of the Pam3Cys Lip peptide is described herein: Pam3Cys—SQ EPAAPAAEAT PAAEAP. Protollin was used at concentration 1 ug per ml based on the LPS content from Shigella flexneri. Pam3Cys lip peptide was used at concentration of 5 ug per ml of the pure tri-palmitoylated peptide.
Additionally, cells were imaged using 42 HiLyte 488 Fluo (Anaspec, Inc.) at 2 ug per ml in DMEM complete media (Invitrogen). Lysotracker red staining was performed and slides were mounted and co-stained with DAPI to show the nucleus (blue). […] Lysotracker red reagent was purchased from Invitrogen and used as manufacturer recommendations.

Compound: CCCCCCCCCCC[C@H](CC(=O)N[C@H]1[C@H](OC[C@H](NC(=O)C[C@@H](CCCCCCCCCCC)OC(=O)CCCCCCCCC)C(=O)O)O[C@H](CO)[C@@H](OP(=O)(O)O)[C@@H]1OC(=O)C[C@@H](CCCCCCCCCCC)OC(=O)CCCCCCCCC)OC(=O)CCCCCCCCC [CRX527]
- T-water maze, spatial memory (APPSwe/PS1 mice): spatial memory improvement
- T-water maze, spatial memory (APPSwe/PS1 mice; listed as CRX 527): significant improvements in behaviour

Compound: CCCCCCCCCCC[C@H](CC(=O)N[C@H]1[C@H](OC[C@H](NC(=O)C[C@@H](CCCCCCCCCCC)OCCCCCCCCCC)C(=O)O)O[C@H](CO)[C@@H](OP(=O)(O)O)[C@@H]1OC(=O)C[C@@H](CCCCCCCCCCC)OCCCCCCCCCC)OCCCCCCCCCC [CRX601]
- dose of maximum monocyte response ([1]; single i.m., 0.2-20 ug/mouse, FIG. 12): 10 µg
- dose enough to trigger an increase of the monocyte count ([1]; single i.m., 24 hrs, compared to PBS, FIG. 12): 1 µg
- effect on monocyte count at 20 μg dose ([1]; single i.m., FIG. 12): down modulated
- T-water maze, spatial memory (APPSwe/PS1 mice): spatial memory improvement
- T-water maze, spatial memory (APPSwe/PS1 mice; listed as CRX 601): significant improvements in behaviour
- T-water maze, cognitive functions (APPSwe/PS1 mice; Example 22, i.m., 12× weekly from 3 months old, CRX601 2 μg, CRX601 2 ug in AS03, 3D MPL 5 ug, AS01B 1/10 human dose, vs PBS, unpaired t-tests, FIG. 27A): significant improvement of their cognitive functions
- antibody-mediated Aβ uptake in peripheral blood monocytes ([2]; CRX601 at 20 ug when combined with AS03 emulsion): partially quenched
- antibody-mediated Aβ uptake in peripheral blood monocytes ([2]; CRX601 at 20 ug, single i.m., plus 15 ug 2E7): triggers highest Aβ uptake
- antibody-mediated Aβ uptake in peripheral blood monocytes ([2]; single i.m. injection of different doses plus 15 ug 2E7, Aβ Fluor i.v. 24 hr later): Dose-response observed
- ex vivo uptake of Aβ42 by peripheral blood monocytes ([3]; i.m. AS01B mouse full dose (5 ug per mouse) or CRX601 2 μg, vs PBS group, FIG. 14): uptake an higher amount of Aβ42

Compound: Pam3Cys—SQ EPAAPAAEAT PAAEAP (Pam3Cys-SQEPAAPAAEATPAAEAP) [Pam3CysLip peptide, TLR2 agonist, tri-palmitoylated peptide from Neisseria meningitidis strain 8047]
- phagocytosis of beta-amyloid 1-42 peptide ([4]; 5 ug per ml, pre-incubation 18 hrs): 86 % of cells
- amyloid phagocytic activity ([4]; Pam3CysLip peptide 5 ug per ml, Protollin 1 ug per ml (LPS content), compared to PBS): higher amyloid phagocytic activity

Compound: QS21 [reference compound]
- number of monocytes, of total peripheral white blood cells ([1]; 24 hrs after single i.m. injection (5 μg QS21), FIG. 19A): 9.1%
- activated Ly6C+ monocytes ([1]; 24 hrs after single i.m. injection (5 μg QS21), FIG. 19B): 75%
- ex vivo Aβ42 uptake by peripheral blood monocytes ([3]; i.m. injection, 24 hrs, compared to PBS, QS21 (5 ug), liposomal MPL (5 ug) or MPL (5 ug), FIG. 20): does not promote Aβ uptake
